Measurements as given in ChEMBL document CHEMBL5620359, “Discovery of 2,5-disubstituted furan derivatives featuring a benzamide motif for overcoming P-glycoprotein mediated multidrug resistance in MCF-7/ADR cell” (Eur J Med Chem, 2023).

Key:
Format in all cases: functional
NCI/ADR-RES [1] = assay: Reversal activity against doxorubicin-mediated resistance in human MCF7ADR cells assessed as reversal fold by measuring ratio of doxorubicin IC50 to doxorubicin IC50 in presence of test compound at 5 uM incubated for 48 hrs by CCK8 assay
NCI/ADR-RES [2] = assay: Cytotoxicity against human MCF7ADR cells assessed as cell survival rate at 5 uM incubated for 48 hrs by CCK8 assay relative to control
MCF7 = assay: Cytotoxicity against human MCF7 cells assessed as cell survival rate at 5 uM incubated for 48 hrs by CCK8 assay relative to control

Structure (SMILES): COc1cc2c(cc1OC)CN(C(=O)c1ccc(-c3ccc(NC(=O)c4ccc(-c5ccccc5)cc4)cc3)o1)CC2
- fold change (FC) (NCI/ADR-RES [1]): 17.1
- Activity (NCI/ADR-RES [2]): 95%
- Activity (MCF7): 98.7%

Structure (SMILES): COc1cc2c(cc1OC)CN(C(=O)c1ccc(-c3ccccc3NC(=O)c3ccc(Cl)cc3)o1)CC2
- fold change (FC) (NCI/ADR-RES [1]): 24
- Activity (NCI/ADR-RES [2]): 84.1%
- Activity (MCF7): 83%

Structure (SMILES): COc1cc2c(cc1OC)CN(C(=O)c1ccc(-c3ccccc3NC(=O)c3cccc(Cl)c3)o1)CC2
- fold change (FC) (NCI/ADR-RES [1]): 45
- Activity (NCI/ADR-RES [2]): 80.4%
- Activity (MCF7): 53%

Structure (SMILES): COc1cccc(C(=O)Nc2ccccc2-c2ccc(C(=O)N3CCc4cc(OC)c(OC)cc4C3)o2)c1
- fold change (FC) (NCI/ADR-RES [1]): 26.6
- Activity (NCI/ADR-RES [2]): 83%
- Activity (MCF7): 81.2%

Structure (SMILES): COc1cc2c(cc1OC)CN(C(=O)c1ccc(-c3ccc(NC(=O)c4ccc([N+](=O)[O-])cc4)cc3)o1)CC2
- fold change (FC) (NCI/ADR-RES [1]): 50.9
- Activity (NCI/ADR-RES [2]): 82.2%
- Activity (MCF7): 68.9%

Structure (SMILES): COc1cc2c(cc1OC)CN(C(=O)c1ccc(-c3ccc(NC(=O)c4ccccc4F)cc3)o1)CC2
- fold change (FC) (NCI/ADR-RES [1]): 11
- Activity (NCI/ADR-RES [2]): 99.2%
- Activity (MCF7): 77.1%

Structure (SMILES): COc1cc2c(cc1OC)CN(C(=O)c1ccc(-c3cccc(NC(=O)c4ccccc4Cl)c3)o1)CC2
- fold change (FC) (NCI/ADR-RES [1]): 32.8
- Activity (NCI/ADR-RES [2]): 80.8%
- Activity (MCF7): 67.3%

Structure (SMILES): COc1cc2c(cc1OC)CN(C(=O)c1ccc(-c3cccc(NC(=O)c4ccc(Cl)cc4)c3)o1)CC2
- fold change (FC) (NCI/ADR-RES [1]): 18
- Activity (NCI/ADR-RES [2]): 85.5%
- Activity (MCF7): 88.1%

Structure (SMILES): COc1cc2c(cc1OC)CN(C(=O)c1ccc(-c3cccc(NC(=O)c4ccccc4OC)c3)o1)CC2
- fold change (FC) (NCI/ADR-RES [1]): 44.2
- Activity (NCI/ADR-RES [2]): 65%
- Activity (MCF7): 53.6%

Structure (SMILES): C/C=C/C[C@@H](C)[C@@H](O)[C@H]1C(=O)N[C@@H](CC)C(=O)N(C)CC(=O)N(C)[C@@H](CC(C)C)C(=O)N[C@@H](C(C)C)C(=O)N(C)[C@@H](CC(C)C)C(=O)N[C@@H](C)C(=O)N[C@H](C)C(=O)N(C)[C@@H](CC(C)C)C(=O)N(C)[C@@H](CC(C)C)C(=O)N(C)[C@@H](C(C)C)C(=O)N1C [CYCLOSPORINE]
- fold change (FC) (NCI/ADR-RES [1]): 59.1
- Activity (NCI/ADR-RES [2]): 89.4%
- Activity (MCF7): 87.5%

Structure (SMILES): COc1cc2c(cc1OC)CN(C(=O)c1ccc(-c3ccccc3NC(=O)c3ccccc3OC)o1)CC2
- fold change (FC) (NCI/ADR-RES [1]): 20.8
- Activity (NCI/ADR-RES [2]): 74.5%
- Activity (MCF7): 81.2%

Structure (SMILES): COc1ccc(C(=O)Nc2cccc(-c3ccc(C(=O)N4CCc5cc(OC)c(OC)cc5C4)o3)c2)c(OC)c1
- fold change (FC) (NCI/ADR-RES [1]): 17.5
- Activity (NCI/ADR-RES [2]): 64.9%
- Activity (MCF7): 84.7%

Structure (SMILES): COc1cc2c(cc1OC)CN(C(=O)c1ccc(-c3ccc(NC(=O)c4ccccc4OC)cc3)o1)CC2
- fold change (FC) (NCI/ADR-RES [1]): 24.2
- Activity (NCI/ADR-RES [2]): 98.6%
- Activity (MCF7): 99.7%

Structure (SMILES): COc1cc2c(cc1OC)CN(C(=O)c1ccc(-c3ccc(NC(=O)c4ccccc4[N+](=O)[O-])cc3)o1)CC2
- fold change (FC) (NCI/ADR-RES [1]): 18.6
- Activity (NCI/ADR-RES [2]): 99.5%
- Activity (MCF7): 97.8%

Structure (SMILES): COc1cc2c(cc1OC)CN(C(=O)c1ccc(-c3ccc(NC(=O)c4ccccc4Cl)cc3)o1)CC2
- fold change (FC) (NCI/ADR-RES [1]): 66.9
- Activity (NCI/ADR-RES [2]): 82.5%
- Activity (MCF7): 65.5%

Structure (SMILES): COc1cc2c(cc1OC)CN(C(=O)c1ccc(-c3ccc(NC(=O)c4ccc(N(C)C)cc4)cc3)o1)CC2
- fold change (FC) (NCI/ADR-RES [1]): 40
- Activity (NCI/ADR-RES [2]): 71.8%
- Activity (MCF7): 98.6%

Structure (SMILES): COc1cc2c(cc1OC)CN(C(=O)c1ccc(-c3ccc(NC(=O)c4cccc(Cl)c4)cc3)o1)CC2
- fold change (FC) (NCI/ADR-RES [1]): 267.6
- Activity (NCI/ADR-RES [2]): 83.3%
- Activity (MCF7): 74.8%

Structure (SMILES): COc1cc(OC)cc(C(=O)Nc2ccccc2-c2ccc(C(=O)N3CCc4cc(OC)c(OC)cc4C3)o2)c1
- fold change (FC) (NCI/ADR-RES [1]): 13.1
- Activity (NCI/ADR-RES [2]): 97.3%
- Activity (MCF7): 70.5%

Structure (SMILES): COc1cc2c(cc1OC)CN(C(=O)c1ccc(-c3ccc(NC(=O)c4ccc(C(C)(C)C)cc4)cc3)o1)CC2
- fold change (FC) (NCI/ADR-RES [1]): 164
- Activity (NCI/ADR-RES [2]): 61.1%
- Activity (MCF7): 44.9%

Structure (SMILES): COc1cc2c(cc1OC)CN(C(=O)c1ccc(-c3cccc(NC(=O)c4cccc([N+](=O)[O-])c4)c3)o1)CC2
- fold change (FC) (NCI/ADR-RES [1]): 23
- Activity (NCI/ADR-RES [2]): 76.5%
- Activity (MCF7): 69.6%

Structure (SMILES): COc1ccc(CNc2ccc(-c3ccc(C(=O)N4CCc5cc(OC)c(OC)cc5C4)o3)cc2)cc1
- fold change (FC) (NCI/ADR-RES [1]): 5.2
- Activity (NCI/ADR-RES [2]): 98.2%
- Activity (MCF7): 99.7%

Structure (SMILES): COc1cc2c(cc1OC)CN(C(=O)c1ccc(-c3ccc(NC(=O)c4ccc(F)cc4)cc3)o1)CC2
- fold change (FC) (NCI/ADR-RES [1]): 53.5
- Activity (NCI/ADR-RES [2]): 70.6%
- Activity (MCF7): 53.6%

Structure (SMILES): COc1ccc(-c2ccc(C(=O)N3CCc4cc(OC)c(OC)cc4C3)o2)cc1
- fold change (FC) (NCI/ADR-RES [1]): 9.1
- Activity (NCI/ADR-RES [2]): 94.1%

Structure (SMILES): COc1cc2c(cc1OC)CN(C(=O)c1ccc(-c3cccc(NC(=O)c4ccccc4)c3)o1)CC2
- fold change (FC) (NCI/ADR-RES [1]): 45.8
- Activity (NCI/ADR-RES [2]): 76.1%

Structure (SMILES): COc1cc2c(cc1OC)CN(C(=O)c1ccc(-c3cccc(NC(=O)c4cccc(Cl)c4)c3)o1)CC2
- fold change (FC) (NCI/ADR-RES [1]): 41
- Activity (NCI/ADR-RES [2]): 97.5%
- Activity (MCF7): 85.3%

Structure (SMILES): COc1cc2c(cc1OC)CN(C(=O)c1ccc(-c3ccccc3NC(=O)c3cccc([N+](=O)[O-])c3)o1)CC2
- fold change (FC) (NCI/ADR-RES [1]): 6.1
- Activity (NCI/ADR-RES [2]): 66.2%
- Activity (MCF7): 67.5%

Structure (SMILES): COc1cc2c(cc1OC)CN(C(=O)c1ccc(-c3ccc(NC(=O)c4ccc(C#N)cc4)cc3)o1)CC2
- fold change (FC) (NCI/ADR-RES [1]): 41
- Activity (NCI/ADR-RES [2]): 56.7%
- Activity (MCF7): 85.6%

Structure (SMILES): COc1cc2c(cc1OC)CN(C(=O)c1ccc(-c3ccc(NC(=O)c4cccc([N+](=O)[O-])c4)cc3)o1)CC2
- fold change (FC) (NCI/ADR-RES [1]): 53.5
- Activity (NCI/ADR-RES [2]): 71%
- Activity (MCF7): 79.2%

Structure (SMILES): COc1cc2c(cc1OC)CN(C(=O)c1ccc(-c3ccccc3NC(=O)c3ccc([N+](=O)[O-])cc3)o1)CC2
- fold change (FC) (NCI/ADR-RES [1]): 24.3
- Activity (NCI/ADR-RES [2]): 99.6%
- Activity (MCF7): 86.2%

Structure (SMILES): COc1cc2c(cc1OC)CN(C(=O)c1ccc(-c3ccc(NC(=O)c4ccc(Br)cc4)cc3)o1)CC2
- fold change (FC) (NCI/ADR-RES [1]): 48.4
- Activity (NCI/ADR-RES [2]): 96.3%
- Activity (MCF7): 97.2%

Structure (SMILES): COc1ccc(CCN(C)CCCC(C#N)(c2ccc(OC)c(OC)c2)C(C)C)cc1OC (stereo not drawn)
- Activity (NCI/ADR-RES [2]): 75%
- Activity (MCF7): 99.6%

Structure (SMILES): COc1ccc(S(=O)(=O)N(c2ccc(-c3ccc(C(=O)N4CCc5cc(OC)c(OC)cc5C4)o3)cc2)S(=O)(=O)c2ccc(OC)cc2)cc1
- fold change (FC) (NCI/ADR-RES [1]): 21.9
- Activity (NCI/ADR-RES [2]): 94.6%
- Activity (MCF7): 92.6%

Structure (SMILES): COc1ccc(NC(=O)Nc2ccc(-c3ccc(C(=O)N4CCc5cc(OC)c(OC)cc5C4)o3)cc2)cc1
- Activity (NCI/ADR-RES [2]): 98.2%
- Activity (MCF7): 99.2%

Structure (SMILES): COc1ccc(C(=O)Nc2ccc(-c3ccc(C(=O)N4CCc5cc(OC)c(OC)cc5C4)o3)cc2)c(OC)c1
- fold change (FC) (NCI/ADR-RES [1]): 36.8
- Activity (NCI/ADR-RES [2]): 66.7%
- Activity (MCF7): 63.7%

Structure (SMILES): COc1cc2c(cc1OC)CN(C(=O)c1ccc(-c3ccc(NC(=O)c4ccc(OC(F)(F)F)cc4)cc3)o1)CC2
- fold change (FC) (NCI/ADR-RES [1]): 118.3
- Activity (NCI/ADR-RES [2]): 72.8%
- Activity (MCF7): 61.3%

Structure (SMILES): COc1cc2c(cc1OC)CN(C(=O)c1ccc(-c3cccc(NC(=O)c4ccc([N+](=O)[O-])cc4)c3)o1)CC2
- fold change (FC) (NCI/ADR-RES [1]): 32.6
- Activity (NCI/ADR-RES [2]): 99.7%
- Activity (MCF7): 99.8%

Structure (SMILES): COc1cc2c(cc1OC)CN(C(=O)c1ccc(-c3ccc(NC(=O)c4cccc(F)c4)cc3)o1)CC2
- fold change (FC) (NCI/ADR-RES [1]): 19.6
- Activity (NCI/ADR-RES [2]): 78.2%
- Activity (MCF7): 75.1%

Structure (SMILES): COc1cc2c(cc1OC)CN(C(=O)c1ccc(-c3ccc(NC(=O)c4ccc(Cl)cc4)cc3)o1)CC2
- fold change (FC) (NCI/ADR-RES [1]): 124
- Activity (NCI/ADR-RES [2]): 79.8%
- Activity (MCF7): 50.1%

Structure (SMILES): COc1cc2c(cc1OC)CN(C(=O)c1ccc(-c3ccccc3NC(=O)c3ccccc3)o1)CC2
- fold change (FC) (NCI/ADR-RES [1]): 7.5
- Activity (NCI/ADR-RES [2]): 70.9%

Structure (SMILES): COc1cc2c(cc1OC)CN(C(=O)c1ccc(-c3cccc(NC(=O)c4cccs4)c3)o1)CC2
- fold change (FC) (NCI/ADR-RES [1]): 46.6
- Activity (NCI/ADR-RES [2]): 61.4%

Structure (SMILES): COc1cc2c(cc1OC)CN(CCc1ccc(NC(=O)c3cc(OC)c(OC)cc3NC(=O)c3cnc4ccccc4c3)cc1)CC2
- fold change (FC) (NCI/ADR-RES [1]): 221.1
- Activity (NCI/ADR-RES [2]): 46.7%
- Activity (MCF7): 80.7%

Structure (SMILES): COc1cc2c(cc1OC)CN(C(=O)c1ccc(-c3ccccc3NC(=O)c3ccccc3Cl)o1)CC2
- fold change (FC) (NCI/ADR-RES [1]): 29.2
- Activity (NCI/ADR-RES [2]): 96.3%
- Activity (MCF7): 66.5%

Structure (SMILES): COc1cc(OC)cc(C(=O)Nc2cccc(-c3ccc(C(=O)N4CCc5cc(OC)c(OC)cc5C4)o3)c2)c1
- fold change (FC) (NCI/ADR-RES [1]): 30.1
- Activity (NCI/ADR-RES [2]): 73.9%
- Activity (MCF7): 63%
